Data as given in patent publication US20160113932A1, “TREATMENT OF CANCERS USING PI3 KINASE ISOFORM MODULATORS” (INFINITY PHARMACEUTICALS, INC., priority 2013, published 2016).

Columns and labels:
[1] = system: phospho-AKT in OCI-LY-8 cells; test: phospho-AKT after BCR crosslinking; assay type: cell-based
Description: Activation of the PI3K pathway is an important component of normal B-cell receptor (BCR) signaling and has been implicated in the pathogenesis of DLBCL. […] There was rapid modulation of phospho-AKT and phospho-PRAS40 by 30 minutes, whereas modulation of phospho-S6 was not detected until after 8 hours.
These biochemical findings indicate a mechanistic rationale for combination of PI3K-δ,γ and BTK inhibition.

[2] = system: phospho-BTK in SU-DHL-4; test: phospho-BTK in DLBCL cells; assay type: cell-based
[3] = system: SU-DHL-4 GCB DLBCL cell line; test: Cell viability with Compound 292, ibrutinib or combination, 72 h CellTiter Glo; assay type: cell-based; details: SU-DHL-4, 72 hours
[4] = system: DOHH-2; details: in combination with Compound 292
Description: (§1) The method is described as follows. Cells are thawed from a liquid nitrogen preserved state. Once cells have been expanded and divide at their expected doubling times, screening begins. Cells are seeded in growth media in either black 1536-well or 384-well tissue culture treated plates. […] These Tzero (T0) plates are read using ultra-sensitive luminescence on Envision plate readers (Perkin Elmer). […] All data points are collected via automated processes, quality controlled and analyzed using Zalicus software.
(§2) I ranges from 0% (when T=V) to 100% (when T=0). […] The measure of effect in the experiment can be the inhibition of cellular response relative to the untreated level (vehicle alone). For untreated vehicle and treated levels V and T, a fractional inhibition 1=1−T/V is calculated. The inhibition ranges from 0% at the untreated level to 100% when T=0 Inhibition levels are negative for agents that actually increase levels. Other effect measures, such as an activity ratio r=T/V may be more appropriate for some assays. When activity ratios (e.g, fold increase over […] control) are being used, the effect can be measured using an induction I=1n(T/V). With this definition, all effect expressions are the same as for inhibition.
(§3) Growth Inhibition (GI) is used as a measure of cell viability. […] A GI reading of 100% represents complete growth inhibition-T72 compound-treated and T0 vehicle signals are matched. […] A GI reading of 200% represents complete death of all cells in the culture well. Compounds reaching an activity plateau of GI 200% are considered cytotoxic. GI is calculated by applying the following test and equation: […]
(§4) Combination analysis data were collected in a 6×6 dose matrix. Synergy is calculated by comparing a combination's response to those of its single compound, against the drug-with-itself dose-additive reference model. Deviations from dose additivity may be assessed visually on an isobologram or numerically with a Combination Index (CI). […] Additive effect is CI=1.0. […] Antagonistic effect is CI>1.0.
(§5) To measure combination effects in excess of Loewe additivity, a scalar measure to characterize the strength of synergistic interaction termed the Synergy Score is devised. The Synergy Score is calculated as: […]
(§6) The fractional inhibition for each component agent and combination point in the matrix is calculated relative to the median of all vehicle-treated control wells. The Synergy Score equation integrates the experimentally-observed activity volume at each point in the matrix in excess of a model surface numerically derived from the activity of the component agents using the Loewe model for additivity. Additional terms in the Synergy Score equation (above) are used to normalize for various dilution factors used for individual agents and to allow for comparison of synergy scores across an entire experiment. The inclusion of positive inhibition gating or an Idata multiplier removes noise near the zero effect level, and biases results for synergistic interactions at that occur at high activity levels.
(§7) Loewe Volume (Loewe Vol) is used to assess the overall magnitude of the combination interaction in excess of the Loewe additivity model. Loewe Volume is particularly useful when distinguishing synergistic increases in a phenotypic activity (positive Loewe Volume) versus synergistic antagonisms (negative Loewe Volume). […] This model defines additivity as a non-synergistic combination interaction where the combination dose matrix surface should be indistinguishable from either drug crossed with itself.

[5] = system: Farage; details: in combination with Compound 292
Description: as §1, §2, §3, §4, §5, §6, §7

[6] = system: GRANTA-519; details: in combination with Compound 292
Description: as §1, §2, §3, §4, §5, §6, §7

[7] = system: HBL-1; details: in combination with Compound 292
Description: as §1, §2, §3, §4, §5, §6, §7

[8] = system: HH; details: in combination with Compound 292
Description: as §1, §2, §3, §4, §5, §6, §7

[9] = system: Jeko-1; details: in combination with Compound 292
Description: as §1, §2, §3, §4, §5, §6, §7

[10] = system: KARPAS-299; details: in combination with Compound 292
Description: as §1, §2, §3, §4, §5, §6, §7

[11] = system: KARPAS-422; details: in combination with Compound 292
Description: as §1, §2, §3, §4, §5, §6, §7

[12] = system: Mino; details: in combination with Compound 292
Description: as §1, §2, §3, §4, §5, §6, §7

[13] = system: NCI-H929; details: in combination with Compound 292
Description: as §1, §2, §3, §4, §5, §6, §7

[14] = system: OCI-LY3; details: in combination with Compound 292
Description: as §1, §2, §3, §4, §5, §6, §7

[15] = system: OCI-Ly7; details: in combination with Compound 292
Description: as §1, §2, §3, §4, §5, §6, §7

[16] = system: OPM-2; details: in combination with Compound 292
Description: as §1, §2, §3, §4, §5, §6, §7

[17] = system: SU-DHL-10-epst; details: in combination with Compound 292
Description: as §1, §2, §3, §4, §5, §6, §7

[18] = system: SU-DHL-4-epst; details: in combination with Compound 292
Description: as §1, §2, §3, §4, §5, §6, §7

[19] = system: TMD8; details: in combination with Compound 292
Description: as §1, §2, §3, §4, §5, §6, §7

[20] = system: U-2932; details: in combination with Compound 292
Description: as §1, §2, §3, §4, §5, §6, §7

[21] = system: WSU-NHL; details: in combination with Compound 292
Description: as §1, §2, §3, §4, §5, §6, §7

[22] = system: RL; test: Combination with BTK inhibitor, 72 h ATPLite, 6x6 dose matrix (follicular lymphoma); assay type: cell-based; details: in combination with Compound 292
Description: as §1, §2, §3, §4, §5, §6, §7

C=CC(=O)N1CCC[C@@H](n2nc(-c3ccc(Oc4ccccc4)cc3)c3c(N)ncnc32)C1 [ibrutinib, 1-[(3R)-3-[4-Amino-3-(4-phenoxyphenyl)pyrazolo[3,4-d]pyrimidin-1-yl]piperidin-1-yl]prop-2-en-1-one]
inhibition of the increase in phospho-AKT [1]: only partially inhibited
inhibition of phospho-BTK [2]: robust inhibition
cell viability, monotherapy [3]: dose dependently inhibited viability
CI50 (growth inhibition) [4]: S (S=0.01 to <0.5)
CI50 (inhibition) [4]: S (S=0.01 to <0.5)
Synergy Score (growth inhibition) [4]: A3 (A3=>3)
Synergy Score (inhibition) [4]: A3 (A3=>3)
CI50 (growth inhibition) [5]: S (S=0.01 to <0.5)
CI50 (inhibition) [5]: S (S=0.01 to <0.5)
Synergy Score (growth inhibition) [5]: A3 (A3=>3)
Synergy Score (inhibition) [5]: A3 (A3=>3)
CI50 (growth inhibition) [6]: S (S=0.01 to <0.5)
Synergy Score (growth inhibition) [6]: A2 (A2=1 to <3)
Synergy Score (inhibition) [6]: A1 (A1=0.0001 to <1)
CI50 (growth inhibition) [7]: S (S=0.01 to <0.5)
Synergy Score (growth inhibition) [7]: A3 (A3=>3)
Synergy Score (inhibition) [7]: A1 (A1=0.0001 to <1)
CI50 (growth inhibition) [8]: S (S=0.01 to <0.5)
CI50 (inhibition) [8]: S (S=0.01 to <0.5)
Synergy Score (growth inhibition) [8]: A2 (A2=1 to <3)
Synergy Score (inhibition) [8]: A2 (A2=1 to <3)
CI50 (growth inhibition) [9]: S (S=0.01 to <0.5)
CI50 (inhibition) [9]: T (T=0.5 to <0.7)
Synergy Score (growth inhibition) [9]: A2 (A2=1 to <3)
Synergy Score (inhibition) [9]: A2 (A2=1 to <3)
Synergy Score (growth inhibition) [10]: A1 (A1=0.0001 to <1)
Synergy Score (inhibition) [10]: A1 (A1=0.0001 to <1)
CI50 (growth inhibition) [11]: S (S=0.01 to <0.5)
CI50 (inhibition) [11]: S (S=0.01 to <0.5)
Synergy Score (growth inhibition) [11]: A2 (A2=1 to <3)
Synergy Score (inhibition) [11]: A2 (A2=1 to <3)
CI50 (growth inhibition) [12]: T (T=0.5 to <0.7)
CI50 (inhibition) [12]: S (S=0.01 to <0.5)
Synergy Score (growth inhibition) [12]: A3 (A3=>3)
Synergy Score (inhibition) [12]: A2 (A2=1 to <3)
CI50 (growth inhibition) [13]: U (U=0.7 to <1)
CI50 (inhibition) [13]: S (S=0.01 to <0.5)
Synergy Score (growth inhibition) [13]: A2 (A2=1 to <3)
Synergy Score (inhibition) [13]: A1 (A1=0.0001 to <1)
Synergy Score (growth inhibition) [14]: A1 (A1=0.0001 to <1)
Synergy Score (inhibition) [14]: A1 (A1=0.0001 to <1)
Synergy Score (growth inhibition) [15]: A1 (A1=0.0001 to <1)
Synergy Score (inhibition) [15]: A1 (A1=0.0001 to <1)
Synergy Score (growth inhibition) [16]: A1 (A1=0.0001 to <1)
Synergy Score (inhibition) [16]: A1 (A1=0.0001 to <1)
CI50 (growth inhibition) [17]: S (S=0.01 to <0.5)
CI50 (inhibition) [17]: S (S=0.01 to <0.5)
Synergy Score (growth inhibition) [17]: A3 (A3=>3)
Synergy Score (inhibition) [17]: A3 (A3=>3)
CI50 (growth inhibition) [18]: S (S=0.01 to <0.5)
CI50 (inhibition) [18]: S (S=0.01 to <0.5)
Synergy Score (growth inhibition) [18]: A3 (A3=>3)
Synergy Score (inhibition) [18]: A3 (A3=>3)
CI50 (growth inhibition) [19]: S (S=0.01 to <0.5)
CI50 (inhibition) [19]: S (S=0.01 to <0.5)
Synergy Score (growth inhibition) [19]: A3 (A3=>3)
Synergy Score (inhibition) [19]: A3 (A3=>3)
CI50 (growth inhibition) [20]: S (S=0.01 to <0.5)
CI50 (inhibition) [20]: T (T=0.5 to <0.7)
Synergy Score (growth inhibition) [20]: A2 (A2=1 to <3)
Synergy Score (inhibition) [20]: A1 (A1=0.0001 to <1)
CI50 (growth inhibition) [21]: T (T=0.5 to <0.7)
CI50 (inhibition) [21]: S (S=0.01 to <0.5)
Synergy Score (growth inhibition) [21]: A3 (A3=>3)
Synergy Score (inhibition) [21]: A3 (A3=>3)
CI50 (growth inhibition) [22]: U (U=0.7 to <1)
CI50 (inhibition) [22]: W (W=≧1)
Synergy Score (growth inhibition) [22]: A2 (A2=1 to <3)
Synergy Score (inhibition) [22]: A2 (A2=1 to <3)
